13 compounds from patent publication US8946218B2, “CCR2 receptor antagonists, method for producing the same, and use thereof as medicaments” (Boehringer Ingelheim International GmbH, priority 2010, dated 2015) can be followed below.

Each structure is given as a SMILES string.

This assay deals with T1, CCR2 (Homo sapiens, UniProt P41597).
T1 construct: Membranes were prepared from THP-1 cells; endogenous in cells; host or cells: THP-1 (human acute monocytic leukaemia cells), membrane preparation
T1 sequence (P41597 whole entry): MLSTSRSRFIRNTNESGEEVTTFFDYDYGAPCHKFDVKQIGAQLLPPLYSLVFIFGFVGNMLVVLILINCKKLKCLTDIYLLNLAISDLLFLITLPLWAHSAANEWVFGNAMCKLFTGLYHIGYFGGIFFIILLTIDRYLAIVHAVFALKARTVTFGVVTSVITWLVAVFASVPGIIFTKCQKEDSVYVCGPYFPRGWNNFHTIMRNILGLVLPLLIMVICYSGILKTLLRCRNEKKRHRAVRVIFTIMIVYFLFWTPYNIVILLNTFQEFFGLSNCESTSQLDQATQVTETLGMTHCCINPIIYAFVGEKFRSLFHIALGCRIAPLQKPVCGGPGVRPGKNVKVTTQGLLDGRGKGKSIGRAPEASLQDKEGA
Briefly: Receptor membrane binding assay: [125I]MCP-1 binding to CCR2 on THP-1 cell membranes (SPA beads). The conditions noted are these: THP-1 membranes, [125I]MCP-1, bound radioactivity after 8 h; read-out: hKi. How it is done: The above exemplary substances have been tested for binding to CCR2 using a binding assay as outlined herein below:
THP-1 cells (human acute monocytic leukaemia cells) were cultured under standardized conditions at 37° C. and 5% CO2 in a humidified incubator. THP-1 cells were cultivated in RPMI 1640 medium (Gibco 21875) containing 1% MEM-NEAA (Gibso 11140) 2 mM L-glutamine, 1.5 g/L sodium bicarbonate, 4.5 g/L glucose, 10 mM HEPES and 1.0 mM sodium pyruvate, 90%; 10% fetal calf serum (FCS Gibco 10500-064).
Membranes were prepared from THP-1 cells. THP-1 cells were centrifuged at 300×g at 4° C. for 10 min. The cell pellet was resuspended in Phosphate Buffer Saline (PBS, including 10 μM Pefabloc and a protease inhibitor mix ‘complete’, Boehringer Mannheim (1 tablet/50 ml)), to a concentration of […]. The membrane preparation was performed by disrupting the cells by nitrogen […] (at 50 bar, for 1 h) in a “Nitrogen Bombe” (Parr Instrument). Cell debris was removed by centrifugation (800×g at 4° C., 1 min). The supernatant was centrifuged at 80000×g, 4° C. for 30 min to sediment the cell membranes. Usually 50 mg of protein (Bradford assay) were yielded from 1×10E9 cells. The membranes were resuspended in 25 mM HEPES, 25 mM MgCl2, 1 mM CaCl2, 10% Glycerine for storage in aliquots at −80° C. in 25 mM HEPES, 25 mM MgCl2, 1 mM CaCl2, 10% Glycerine and stored at −80° C.
Receptor Membrane Binding Assay:
Perkin Elmer NEX 332 Jod 125 MCP-1, Stock: 2200 Ci/mmol solved in 2000 μl assay buffer, stored at −20° C. THP-1 membrane were adjusted with 25 mM HEPES, pH 7.2; 5 mM MgCl2; 0.5 mM CaCl2; 0.2% BSA assay buffer to a concentration of 2.5 μg/15 μl. Amersham Biosciences PVT-WGA Beads (RPNQ0001) were adjusted with assay buffer to a concentration of 0.24 mg/30 μl. For preparation of the membrane-bead-suspension membranes and beads were incubated for 30 min at RT under rotation (60 rpm) with a ratio of 1:2. Test compounds dissolved in 100% DMSO to a concentration of 10 mM and are further diluted with 100% DMSO to 1 mM. All additional compound dilutions were obtained with assay buffer, final 1% DMSO. Compounds, membrane-bead-suspension and [125I]MCP-1 (ca. 25000 cpm/10 μl) were incubated. Bound radioactivity was determined by scintillation counter after 8 h. Determination of affinity of test compounds (dissociation constant hKi) is calculated by iterative fitting of experimental data using the “easy sys” program, which is based on law of mass action (Schittkowski K. (1994), Numerische Mathematik, Vol. 68, 129-142).
`Cc1c(Nc2cccc(C(F)(F)F)c2)nc(C2CC2)nc1C(=O)N1CCC(N[C@H]2CCOC[C@H]2F)CC1` [Example 33u]: the Ki came to 1 nM.

Consider `CO[C@H]1COCC[C@H]1NC1CCN(C(=O)c2nc(C3CC3)nc(Nc3cccc(C(F)(F)F)c3)c2C)CC1` [Example 33v], for which the Ki is 0.4 nM.

As to `COc1nc(Nc2cccc(C(F)(F)F)c2)c(C)c(C(=O)N2CCC(NC3CCOCC3)CC2)n1` [Example 33w], the Ki came to 3 nM.

Turning to `COC1COCCC1NC1CCN(C(=O)c2ncnc(Nc3cc4ccccc4c(C)n3)c2C)CC1` (stereo not shown) [Example 34], the Ki was 1010 nM.

As for `CO[C@@H]1COCC[C@@H]1NC1CCN(C(=O)c2ncnc(Nc3ccc4ccccc4c3)c2C)CC1` [Example 35], the Ki came out at 26 nM.

For the compound `COc1ccc2cc(Nc3ncnc(C(=O)N4CCC(N[C@H]5CCOC[C@H]5OC)CC4)c3C)ccc2c1` [Example 36], the Ki was 70 nM.

Consider `COc1ccc2ccc(Nc3ncnc(C(=O)N4CCC(N[C@H]5CCOC[C@H]5OC)CC4)c3C)cc2c1` [Example 37], for which the Ki came to 15 nM.

`COc1cc(Nc2ncnc(C(=O)N3CCC(N[C@H]4CCOC[C@H]4OC)CC3)c2C)cc2ccccc12` [Example 38]: the Ki turned out to be 91 nM.

`CO[C@H]1COCC[C@H]1NC1CCN(C(=O)c2ncnc(Nc3ccc4ccccc4c3)c2C)CC1` [Example 39]: the Ki worked out at 84 nM.

On to `COc1ccc2ccc(Nc3ncnc(C(=O)N4CCC(N[C@@H]5CCOC[C@@H]5OC)CC4)c3C)cc2c1` [Example 40], for which the Ki is 84 nM.

For `COc1cc(Nc2ncnc(C(=O)N3CCC(N[C@@H]4CCOC[C@@H]4OC)CC3)c2C)cc2ccccc12` [Example 41], the Ki was found to be 196 nM.

On to `CO[C@H]1COCC[C@H]1NC1CCN(C(=O)c2ncnc(Nc3ccc4cc(Br)ccc4c3)c2C)CC1` [Example 42], for which the Ki turned out to be 20 nM.

For `CO[C@@H]1COCC[C@@H]1NC1CCN(C(=O)c2ncnc(Nc3ccc4cc(Br)ccc4c3)c2C)CC1` [Example 43], the Ki came out at 17 nM.
